Like-named read-outs stand apart in the source and are kept apart here. Marks after values point to notes of the source that are not given here.
Tests used:
[1] = human, M, cited from earlier work
[2] = cited from earlier work
[3] = cited from earlier work; remark: listed apart in the source
[4] = at low doses; ref Chiu et al. 2009; cited from earlier work
[5] = cited from earlier work; remark: listed apart in the source
[6] = for TCA(%), percentage of administered TCE excreted in urine / TCOH (%): This study (% estimated), 800 mg/kg oral, M
[7] = 1 ppm inhalation, PBPK model estimate, ref Chiu et al 2009
[8] = 1 ppm inhalation, ref Chiu et al 2006
[9] = 70 ppm inhalation, ref Monster 1976
[10] = 70 ppm inhalation, ref Monster 1979
[11] = 200 mg/kg stomach tube, rat Wistar, F, ref Dekant et al. 1984
[12] = 500 mg/kg oral, rat Osborne-Mendal, M, ref Green and Prout 1985
[13] = 600 mg/kg oral, rat Sprague-Dawley, M, ref Larson and Bull 1992
[14] = 100 ppm inhalation, rat, PBPK model estimate, ref Chiu et al 2009
[15] = 200 mg/kg stomach tube, mice NMRI, F, ref Dekant et al. 1984
[16] = 500 mg/kg oral, mice B6C3F1/J, M, ref Green and Prout 1985
[17] = 600 mg/kg oral, mice B6C3F1/J, M, ref Larson and Bull 1992
[18] = 1000 mg/kg oral, mice, PBPK model estimate, ref Chiu et al 2009
[19] = 2100 mg/kg oral, mice B6C3F1/J, M, PBPK model estimate, ref Chiu et al 2014
[20] = mean ± SD, average of all strains, single oral dose 6 mmole/kg
[21] = model-derived AUCs across strains
[22] = range over strains, model estimate

## ClC=C(Cl)Cl [TCE, Trichloroethylene]
[1]; [7]
  GSH conjugation (%): 5%
  Oxidation to GSH: 7.6
  TCA(%) and TCOH (%), one cell spanning both columns: 38%
[1]; [8]
  TCA(%), percentage of administered TCE excreted in urine: 1–2%
  TCOH (%): 16–28%
[1]; [9]
  TCA(%), percentage of administered TCE excreted in urine: 18%
  TCOH (%): 39%
[1]; [10]
  TCA(%), percentage of administered TCE excreted in urine: 21%
  TCOH (%): 43%
[2]; [11]
  TCA(%), percentage of total urinary metabolite calculated based on radioactivity: 15.3 ^* %
  TCOH (%), percentage of total urinary metabolite calculated based on radioactivity: 73.6 ^* %
[2]; [12]
  TCA(%), percentage of total urinary metabolite calculated based on radioactivity: 6.3 ^* %
  TCOH (%), percentage of total urinary metabolite calculated based on radioactivity: 90.1 ^* %
[2]; [13]
  TCA(%), percentage of administered TCE excreted in urine: 4.1%
  TCOH (%): 23.2%
[2]; [14]
  GSH conjugation (%): 0.06%
  Oxidation to GSH: 666.7
  TCA(%) and TCOH (%), one cell spanning both columns: 40%
[2]; 505 ppm inhalation, rat F344, M, PBPK model estimate, ref Fisher et al. 1991
  TCA(%), percentage of administered TCE excreted in urine: 6%
[3]; [15]
  TCA(%), percentage of total urinary metabolite calculated based on radioactivity: 0.1 ^* %
  TCOH (%), percentage of total urinary metabolite calculated based on radioactivity: 94.3 ^* %
[3]; [16]
  TCA(%), percentage of total urinary metabolite calculated based on radioactivity: 7.2 ^* %
  TCOH (%), percentage of total urinary metabolite calculated based on radioactivity: 91.1 ^* %
[3]; [17]
  TCA(%), percentage of administered TCE excreted in urine: 3.9%
  TCOH (%): 31%
[3]; [18]
  GSH conjugation (%): 0.2%
  Oxidation to GSH: 450
  TCA(%) and TCOH (%), one cell spanning both columns: 90%
[3]; [19]
  GSH conjugation (%): 0.065%
  Oxidation to GSH: 290
  TCA(%), percentage of administered TCE excreted in urine: 4.4%
[3]; Collaborative Cross mouse population, single oral dose of TCE, ref Venkatratnam et al. 2017
  inter-strain variability of TCA levels in liver, GSD: 2.24
[4]
  glutathione conjugation metabolites of TCE in rodents as % of that in humans: approximately 1%
[5]; ref Guha et al. 2012
  carcinogenicity classification by IARC: carcinogenic to humans
[5]; ref U.S. EPA 2011a, b
  carcinogenicity classification by US EPA: carcinogenic to humans
[6]; B6C3F1/J mice, kidney
  AUC0–36 of TCE as compared to AUC0–36 of PCE, kidney: 2.0%
[6]; B6C3F1/J mice, liver
  AUC0–36 of TCE as compared to AUC0–36 of PCE, liver: 43.9%
[6]; B6C3F1/J mice, lung
  AUC0–36 of TCE as compared to AUC0–36 of PCE, lung: 36.2%
[6]; B6C3F1/J mice, serum
  AUC0–36 of TCE as compared to AUC0–36 of PCE, serum: 39.8%
[6]; mice B6C3F1/J
  TCA(%), percentage of administered TCE excreted in urine: 5.8%
  TCOH (%): 21%
[6]; mice C57BL/6J
  TCA(%), percentage of administered TCE excreted in urine: 3.5%
  TCOH (%): 12%
[6]; mice NZW/LacJ
  TCA(%), percentage of administered TCE excreted in urine: 7.1%
  TCOH (%): 31%
[6]; across all mouse strains examined
  flux through oxidation metabolism pathway over that through conjugation: 1,200–3,800 fold
[6]; after equimolar treatment of TCE or PCE
  overall flux of glutathione conjugation expressed as dose: 0.13 to 0.17 mg/kg
[6]; higher
  elimination constant for n-acetylcysteine conjugates in TCE-treated as compared to PCE-treated mice: 1.5 fold
[6]; higher than PCE
  TCE elimination rate constant relative to that for PCE: 2.8 fold
[6]; higher than in PCE-treated mice
  formation rate constant of TCA (KTCA) in TCE-treated versus PCE-treated mice: 2.4 fold
[6]; [20]
  First order rate constant, Elimination NAcT/DCVC→: 23.8 ± 10.5 h⁻¹
  First order rate constant, Elimination T/PCE→: 0.49 ± 0.12 h⁻¹
  First order rate constant, Elimination TCA→: 0.05 ± 0.02 h⁻¹
  First order rate constant, Elimination TCOH→: 0.49 ± 0.13 h⁻¹
  First order rate constant, GSH conjugation D/TCVC→NAcD/TCVC: 73.4 ± 17.4 h⁻¹
  First order rate constant, GSH conjugation D/TCVC→Reactive species: 1.69 ± 0.45 h⁻¹
  First order rate constant, GSH conjugation D/TCVG→D/TCVC: 0.30 ± 0.07 h⁻¹
  First order rate constant, GSH conjugation T/PCE→D/TCVG: (3.5±1.1)*10^−6 h^−1
  First order rate constant, Oxidation T/PCE→TCA: 0.034 ± 0.010 h⁻¹
  First order rate constant, Oxidation T/PCE→TCOH: 0.13 ± 0.04 h⁻¹
[6]; [21]
  inter-strain variability of AUC of glutathione conjugation metabolites, GSD: 1.04−1.92
  inter-strain variability of AUC of oxidative metabolites (TCA and TCOH), GSD: 1.24−2.04
[6]; mouse, in vivo
  AUC0–36 of TCE as compared to AUC0–36 of PCE, brain: 29.0%
  elimination rate constant (Ke) of TCA in TCE-treated mice as % of that in PCE-treated mice: 62.5%
[6]; range given for TCE and PCE together, approximately
  yield through glutathione conjugation pathway as % of that through oxidative pathway: 0.033%−3.3
[6]; range over strains
  portion of the parent compound that undergoes metabolism: 15.7%−38.3
[6]; [22]
  Excreted TCA, % of the total dose: 3.5%−7.1
  TCOH, % of the total dose: 12.2−31.2%
  estimated fraction of the reactive species formation from cysteine conjugates: 2.1% to 2.4
[6]; range over strains, model estimate at steady state
  fraction of the total administered dose remaining unmetabolized until excretion: 61.7% to 84.3
[6]; serum, liver, brain, and lung, except for C57BL/6J mice, higher
  AUC0–36 of TCA in TCE-treated mice as compared to PCE-treated mice: 1.2–1.7 fold

From publication PMC6186498 (Toxicology, 2018)
